Source: patent US20230159453A1 (COCRYSTAL PHARMA, INC., priority 2020, published 2023)

Target: SARS2 protease (Severe acute respiratory syndrome coronavirus 2, UniProt P0DTD1)
Experiment: SARS-CoV-2 protease inhibition assay (SARS2 FRET protease assay)
Assay type: biochemical
Conditions: SARS-CoV-2 protease 25 nM, FRET, peptide substrate 1.3 μM, 30 minutes at 30° C., compounds 20 μM to 1.0 nM; read-out: IC50

**Q.** For `CC(=O)N1CCC2(CC1)CC(CC(C=O)NC(=O)[C@H](CC1CCCCC1)NC(=O)c1cc3ccccc3[nH]1)C(=O)N2` (stereo partly drawn) [Compound C75, N-((2S)-1-((1-(8-acetyl-2-oxo-1,8-diazaspiro[4.5]decan-3-yl)-3-oxopropan-2-yl)amino)-3-cyclohexyl-1-oxopropan-2-yl)-1H-indole-2-carboxamide], which IC50 is on record?
**A.** 1.2 nM

**Q.** `CC(C)C[C@H](NC(=O)OC1(Cc2cccc(OCc3ccccc3)c2)CC1)C(=O)N[C@@H](CC1CCNC1=O)C(O)S(=O)(=O)O` (stereo partly drawn) [Compound C76, Sodium (2S)-2-((S)-2-(((1-(3-(benzyloxy)benzyl)cyclopropoxy)carbonyl)amino)-4-methylpentanamido)-1-hydroxy-3-((S)-2-oxopyrrolidin-3-yl)propane-1-sulfonate] was tested. Which IC50 did it give?
**A.** 380 nM

**Q.** Which IC50 does the source give for `CCCC1CCC(OC(=O)N[C@@H](CC(C)C)C(=O)NC(C=O)CC2CC3(CCN(C(C)=O)CC3)NC2=O)CC1` (stereo partly drawn) [Compound C77, 4-Propylcyclohexyl ((2S)-1-((1-(8-acetyl-2-oxo-1,8-diazaspiro[4.5]decan-3-yl)-3-oxopropan-2-yl)amino)-4-methyl-1-oxopentan-2-yl)carbamate] here?
**A.** 600 nM

**Q.** With `CC(C)C[C@H](NC(=O)OC(C)(C)Cc1ccccc1)C(=O)N[C@@H](C[C@@H]1CCNC1=O)C(=O)C(N)=O` [Compound C79] as the compound, how does the IC50 read?
**A.** 3800 nM

**Q.** Which IC50 does the source give for `CCOP(=O)(OCC)C(O)C(CC1CC2(CCN(C(C)=O)CC2)NC1=O)NC(=O)[C@H](CC1CCCCC1)NC(=O)c1cc2ccccc2[nH]1` (stereo partly drawn) [Compound C81, Diethyl (3-(8-acetyl-2-oxo-1,8-diazaspiro[4.5]decan-3-yl)-2-((S)-3-cyclohexyl-2-(1H-indole-2-carboxamido)propanamido)-1-hydroxypropyl)phosphonate] here?
**A.** 200 nM

**Q.** Which IC50 does the source give for `CCOP(=O)(OCC)C(O)C(CC1CC2(CCN(C(C)=O)CC2)NC1=O)NC(=O)[C@H](Cc1cccc(F)c1)NC(=O)OCc1cccc(Cl)c1` (stereo partly drawn) [Compound C82, 3-Chlorobenzyl ((2S)-1-((3-(8-acetyl-2-oxo-1,8-diazaspiro[4.5]decan-3-yl)-1-(diethoxyphosphoryl)-1-hydroxypropan-2-yl)amino)-3-(3-fluorophenyl)-1-oxopropan-2-yl)carbamate] here?
**A.** 4400 nM

**Q.** Which IC50 does the source give for `CC(C)C[C@H](NC(=O)OCC(C)(C)c1cccc(Cl)c1)C(=O)NC(C)(C=O)CC1CCNC1=O` (stereo partly drawn) [Compound C83, 2-(3-Chlorophenyl)-2-methylpropyl ((2S)-4-methyl-1-((2-methyl-1-oxo-3-(2-oxopyrrolidin-3-yl)propan-2-yl)amino)-1-oxopentan-2-yl) carbamate] here?
**A.** 1300 nM

**Q.** Which IC50 does the source give for `CCOP(=O)(OCC)C(O)C(CC1CC2(CCN(C(C)=O)CC2)NC1=O)NC(=O)[C@H](CC(C)C)NC(=O)OCC(C)(C)c1cccc(Cl)c1` (stereo partly drawn) [Compound C84, 2-(3-Chlorophenyl)-2-methylpropyl ((2S)-1-((3-(8-acetyl-2-oxo-1,8-diazaspiro[4.5]decan-3-yl)-1-(diethoxyphosphoryl)-1-hydroxypropan-2-yl)amino)-4-methyl-1-oxopentan-2-yl)carbamate] here?
**A.** 9200 nM

**Q.** How did the IC50 turn out when `CC(C)C[C@H](NC(=O)OC1CCN(C(=O)OC(C)(C)C)c2ccccc21)C(=O)N[C@@H](C[C@@H]1CCNC1=O)C(=O)C(=O)NCc1ccccn1` (stereo partly drawn) [Compound C86, Tert-butyl 4-((((S)-1-(((S)-3,4-dioxo-1-((S)-2-oxopyrrolidin-3-yl)-4-((pyridin-2-ylmethyl)amino)butan-2-yl)amino)-4-methyl-1-oxopentan-2-yl)carbamoyl)oxy)-3,4-dihydroquinoline-1(2H)-carboxylate] was run?
**A.** 900 nM

**Q.** `CC(C)C[C@H](NC(=O)OCC(C)(C)c1cccc(Cl)c1)C(=O)N[C@@H](C[C@@H]1CCNC1=O)C(=O)C(=O)NC1CC1` [Compound C87, 2-(3-Chlorophenyl)-2-methylpropyl ((S)-1-(((S)-4-(cyclopropylamino)-3,4-dioxo-1-((S)-2-oxopyrrolidin-3-yl)butan-2-yl)amino)-4-methyl-1-oxopentan-2-yl)carbamate] was tested. Which IC50 did it give?
**A.** 700 nM

**Q.** Which IC50 does the source give for `CC(C)C[C@H](NC(=O)OC1(Cc2cccc(Cl)c2)CC1)C(=O)N[C@@H](C[C@@H]1CCNC1=O)C(=O)C(N)=O` [Compound C88, 1-(3-Chlorobenzyl) cyclopropyl ((S)-1-(((S)-4-amino-3,4-dioxo-1-((S)-2-oxopyrrolidin-3-yl)butan-2-yl)amino)-4-methyl-1-oxopentan-2-yl)carbamate] here?
**A.** 1300 nM

**Q.** With `CC(C)C[C@H](NC(=O)OCC(C)(C)c1cccc(Cl)c1)C(=O)N[C@@H](C[C@@H]1CCNC1=O)C(=O)C(N)=O` [Compound C90, 2-(3-chlorophenyl)-2-methylpropyl ((S)-1-(((S)-4-amino-3,4-dioxo-1-((S)-2-oxopyrrolidin-3-yl)butan-2-yl)amino)-4-methyl-1-oxopentan-2-yl)carbamate] as the compound, how does the IC50 read?
**A.** 100 nM

**Q.** How did the IC50 turn out when `COc1cccc(CC2(OC(=O)N[C@@H](CC(C)C)C(=O)N[C@@H](C[C@@H]3CCNC3=O)C(=O)C(N)=O)CC2)c1` [Compound C93, 1-(3-Methoxybenzyl) cyclopropyl ((S)-1-(((S)-4-amino-3,4-dioxo-1-((S)-2-oxopyrrolidin-3-yl)butan-2-yl)amino)-4-methyl-1-oxopentan-2-yl) carbamate] was run?
**A.** > 20000 nM

**Q.** For `CCOP(=O)(OCC)C(O)C(CC1CC2(CCN(C(C)=O)CC2)NC1=O)NC(=O)[C@H](CC(C)C)NC(=O)c1cc2ccccc2[nH]1` (stereo partly drawn) [Compound C94, Diethyl (2-((S)-2-(1H-indole-2-carboxamido)-4-methylpentanamido)-3-(8-acetyl-2-oxo-1,8-diazaspiro[4.5]decan-3-yl)-1-hydroxypropyl)phosphonate], which IC50 is on record?
**A.** 2600 nM

**Q.** Which IC50 does the source give for `CCOP(=O)(OCC)C(O)C(CC1CC2(CCN(C(C)=O)CC2)NC1=O)NC(=O)[C@H](CC(C)C)NC(=O)OCC1CCC(F)(F)CC1` (stereo partly drawn) [Compound C95, (4,4-Difluorocyclohexyl)methyl ((2S)-1-((3-(8-acetyl-2-oxo-1,8-diazaspiro[4.5]decan-3-yl)-1-(diethoxyphosphoryl)-1-hydroxypropan-2-yl)amino)-4-methyl-1-oxopentan-2-yl)carbamate] here?
**A.** 7000 nM

**Q.** `CC(C)C[C@H](NC(=O)N(Cc1ccccc1)C1CCN(C(=O)OC(C)(C)C)CC1)C(=O)N[C@@H](C[C@@H]1CCNC1=O)C(=O)C(=O)NC1CC1` [Compound C98, Tert-butyl 4-(1-benzyl-3-((S)-1-(((S)-4-(cyclopropylamino)-3,4-dioxo-1-((S)-2-oxopyrrolidin-3-yl)butan-2-yl)amino)-4-methyl-1-oxopentan-2-yl)ureido)piperidine-1-carboxylate] was tested. Which IC50 did it give?
**A.** 2200 nM

**Q.** For `CC(C)C[C@H](NC(=O)OC(Cc1ccccc1)c1ccccc1)C(=O)N[C@@H](C[C@@H]1CCNC1=O)C(=O)C(N)=O` (stereo partly drawn) [Compound C100, 1,2-Diphenylethyl ((S)-1-(((S)-4-amino-3,4-dioxo-1-((S)-2-oxopyrrolidin-3-yl)butan-2-yl)amino)-4-methyl-1-oxopentan-2-yl)carbamate], which IC50 is on record?
**A.** 1000 nM

**Q.** How did the IC50 turn out when `CC(C)C[C@H](NC(=O)OCC(C)(C)c1cccc(Cl)c1)C(=O)N[C@H](CO)C[C@@H]1CCNC1=O` [Compound C101, 2-(3-Chlorophenyl)-2-methylpropyl ((S)-1-(((S)-1-hydroxy-3-((S)-2-oxopyrrolidin-3-yl)propan-2-yl)amino)-4-methyl-1-oxopentan-2-yl)carbamate] was run?
**A.** > 20000 nM

**Q.** With `CC(=O)N1CC2(CC(CC(C=O)NC(=O)[C@H](CC(C)C)NC(=O)OCc3cccc(Cl)c3)C(=O)N2)C1` (stereo partly drawn) [Compound C102, 3-chlorobenzyl ((2S)-1-((1-(2-acetyl-6-oxo-2,5-diazaspiro[3.4]octan-7-yl)-3-oxopropan-2-yl)amino)-4-methyl-1-oxopentan-2-yl)carbamate] as the compound, how does the IC50 read?
**A.** 118 nM

**Q.** For `CC(C)(COC(=O)N[C@H](C(=O)N[C@H](C=O)C[C@@H]1CCNC1=O)C(C)(C)C)c1cccc(Cl)c1` [Compound C103, 2-(3-Chlorophenyl)-2-methylpropyl ((S)-3,3-dimethyl-1-oxo-1-(((S)-1-oxo-3-((S)-2-oxopyrrolidin-3-yl)propan-2-yl)amino)butan-2-yl)carbamate], which IC50 is on record?
**A.** 736 nM

**Q.** With `CC(C)C[C@H](NC(=O)OC(Cc1cccc(Cl)c1)c1ccccc1)C(=O)N[C@H](C=O)C[C@@H]1CCNC1=O` (stereo partly drawn) [Compound C104, 2-(3-Chlorophenyl)-1-phenylethyl ((S)-4-methyl-1-oxo-1-(((S)-1-oxo-3-((S)-2-oxopyrrolidin-3-yl)propan-2-yl)amino)pentan-2-yl) carbamate] as the compound, how does the IC50 read?
**A.** 6 nM

**Q.** With `CC(C)(c1cccc(Cl)c1)C(OC(=O)N[C@@H](CC1CCCCC1)C(=O)N[C@H](C=O)C[C@@H]1CCNC1=O)c1cccc(F)c1` (stereo partly drawn) [Compound C105, 2-(3-Chlorophenyl)-1-(3-fluorophenyl)-2-methylpropyl ((S)-3-cyclohexyl-1-oxo-1-(((S)-1-oxo-3-((S)-2-oxopyrrolidin-3-yl)propan-2-yl)amino)propan-2-yl)carbamate] as the compound, how does the IC50 read?
**A.** 0.6 nM

**Q.** Which IC50 does the source give for `CC(C)(c1cccc(Cl)c1)C(OC(=O)N[C@@H](CC1CCCCC1)C(=O)N[C@H](C=O)C[C@@H]1CCNC1=O)c1cccc(Cl)c1` (stereo partly drawn) [Compound C106, 1,2-Bis(3-chlorophenyl)-2-methylpropyl ((S)-3-cyclohexyl-1-oxo-1-(((S)-1-oxo-3-((S)-2-oxopyrrolidin-3-yl)propan-2-yl)amino)propan-2-yl)carbamate] here?
**A.** 0.1 nM

**Q.** `CC(C)C[C@H](NC(=O)OCC1CCC(F)(F)CC1)C(=O)NC(C)(C=O)CC1CCNC1=O` (stereo partly drawn) [Compound C107, (4,4-Difluorocyclohexyl) methyl ((2S)-4-methyl-1-((2-methyl-1-oxo-3-(2-oxopyrrolidin-3-yl)propan-2-yl)amino)-1-oxopentan-2-yl) carbamate] was tested. Which IC50 did it give?
**A.** 6790 nM

**Q.** For `CC(C)C[C@H](NC(=O)OC(c1ccccc1)C(C)(C)c1cccc(Cl)c1)C(=O)N[C@H](C=O)C[C@@H]1CCNC1=O` (stereo partly drawn) [Compound C108, 2-(3-Chlorophenyl)-2-methyl-1-phenylpropyl ((S)-4-methyl-1-oxo-1-(((S)-1-oxo-3-((S)-2-oxopyrrolidin-3-yl)propan-2-yl)amino)pentan-2-yl) carbamate], which IC50 is on record?
**A.** 1.2 nM

**Q.** Which IC50 does the source give for `O=C[C@H](C[C@@H]1CCNC1=O)NC(=O)[C@H](CC1CCCCC1)NC(=O)OC(Cc1cccc(Cl)c1)c1ccccc1` (stereo partly drawn) [Compound C109, 2-(3-Chlorophenyl)-1-phenylethyl ((S)-3-cyclohexyl-1-oxo-1-(((S)-1-oxo-3-((S)-2-oxopyrrolidin-3-yl)propan-2-yl)amino)propan-2-yl)carbamate] here?
**A.** 2 nM
